In patent US10350152B2, “Skin whitening composition, and method for screening for materials having skin whitening effect” (AMOREPACIFIC CORPORATION, priority 2015, dated 2019):

Columns and labels:
[1] = test system: melanocytes; test: Viability of melanocytes cultured with exosomes (crystal violet cytotoxicity test); format: cell-based, human; details: exosomes from melanocytes treated with ultraviolet rays together with inhibitor; recipient melanocytes irradiated with UVB 20 mJ/cm^2, cultured 3 days
Procedure: Normal human melanocytes (Cascade Biologics, Portland, Oreg., USA) were kept in M-254 medium (Cascade) containing a human melanocyte growth supplement (Cascade). GW4869 (Santa Cruz Biotechnology, Santa Cruz, Calif., USA) and pifithrin-μ (Sigma, St. Louis, Mo., USA) were dissolved in DMSO for use. Melanocytes were seeded in a 6-well plate at a density of 1×10^4 cells/well. The next day, 10 μl of exosomes isolated from the same number of cells were treated. Cells were fixed with 4% formaldehyde in PBS for 15 minutes, washed with PBS and stained with 0.1% crystal violet for 20 minutes. After washing with PBS, the cells were dried and lysed with 10% acetic acid. The absorbance was measured at 590 nm using a spectrophotometer. Each of the exosomes obtained from UVB-untreated melanocytes, UVB-treated melanocytes, or UVB- and GW4869-treated melanocytes, together with melanocytes, were irradiated with UVB (20 mJ/cm^2), and cultured for 3 days.

[2] = test system: Normal human melanocytes; test: Amount of secretion of exosomes from UVB-irradiated melanocytes (exosome marker CD81, western blot); format: cell-based; details: 10 μM, treated for 12 hours before UVB exposure (20 mJ/cm^2), cultured 24 hours
Procedure: Normal human melanocytes (Cascade Biologics, Portland, Oreg., USA) were kept in M-254 medium (Cascade) containing a human melanocyte growth supplement (Cascade). GW4869 (Santa Cruz Biotechnology, Santa Cruz, Calif., USA) and pifithrin-μ (Sigma, St. Louis, Mo., USA) were dissolved in DMSO for use. For isolation of exosomes, confluent melanocytes were washed with PBS and cultured in M-254 for 48 hours. Conditioned medium was collected and centrifuged at 500×g for 10 minutes, 3,000×g for 20 minutes, and 100,000×g for 2 hours. The resultant exosome-containing pellet was resuspended in PBS and stored at −80° C. Also, conditioned medium was purified by filtration through a 0.45 μm pore filter (Millipore, Billerica, Mass., USA) and concentrated using a 100 kDa cut-off spin column (Millipore). Exosomes were isolated using the ExoQuick-TC kit (SBI, San Jose, Calif., USA) according to the manufacturer's instructions. 20 μl of isolated exosomes were analyzed by western blot and silver staining. Cells or isolated exosomes were lysed with lysis buffer (1% NP-40, 0.05 M Tris-HCl, pH 7.5, 0.15 M NaCl, and 0.01 M MgCl2) containing protease inhibitors (Sigma). Protein concentrations were determined using BCA assays, and samples were […] by SDS-PAGE, transferred to a PVDF membrane, and probed with antibodies against CD81 (SBI). […]

Row | SMILES | effect of exosomes from UVB- and inhibitor-treated melanocytes on viability of ultraviolet-irradiated melanocytes [1] | amount of expression of the exosome marker CD81 [2]
1 | Cl.Cl.O=C(/C=C/c1ccc(/C=C/C(=O)Nc2ccc(C3=NCCN3)cc2)cc1)Nc1ccc(C2=NCCN2)cc1 [GW4869] | reduced effect in the enhancement of the viability of melanocytes | decreased
2 | NS(=O)(=O)C#Cc1ccccc1 [pifithrin-μ] | reduced effect in the enhancement of the viability of melanocytes | decreased
